Marks after values point to notes of the source that are not given here.
Columns and labels:
Assay type in all cases: cell-based
[1] = system: human living skin explant; assay: Cell viability of human living skin explants (UV study); settings: non irradiated; day 4
Experimental: (§1) human skin explants of an average diameter of 12 mm (±1 mm) were prepared on an abdoplasty coming from a person). The explants were kept in survival in BEM culture medium at 37° C. in a humid, 5%-CO2 atmosphere.
(§2) On day 0 (D0), day 1, day 2 and day 3 (3 hours before irradiation), the tested products were applied topically on surface of skin explants at the rate of 2 mg/cm^2, twice a day for D1 and D2 and once on DO and D3. […] The medium was half renewed (1 ml per well) on day 2.
(§3) On D3, the culture media of all the batches was replaced by HBSS solution (Hank's Balanced Saline Solution; 1 ml per explant). The batches “UV” were irradiated by UVA+ UVB using a UV simulator Vibert Lourmat RMX 3W with a dose of 18 J/cm2 of UVA (4 MED, minimal erythemal dose) and 0.3 J/cm2 of UVB (2 MED). The unirradiated batches were kept in HBSS in the dark. At the end of the irradiation the explants were put back in 2 mL of BEM medium.
(§4) After fixation for 24 hours in buffered formalin, the samples were dehydrated and impregnated in paraffin using a Leica PEARL dehydration automat. The samples were embedded using a Leica EG 1160 embedding station. 5-μm-thick sections were made using a Leica RM 2125 Minot-type microtome, and the sections were mounted on Superfrost® histological glass slides. The frozen samples were cut into 7-μm-thick sections using a Leica CM 3050 cryostat. Sections were then mounted on Superfrost® plus silanized glass slides. The microscopical observations were realized using a Leica DMLB or Olympus BX43 microscope. Pictures were digitized with a numeric DP72 Olympus camera with CellD storing software.

[2] = system: human living skin explant; assay: Immunostaining of carbonylated proteins (FTZ) on human living skin explants; settings: UV irradiated
Experimental: as §1, §2, §3, §4
Protein carbonylation is a type of protein oxidation that can be promoted by reactive oxygen species (ROS), generated by UV exposure. FTZ marker assay was conducted by immunostaining in the living epidermis of human skin explant as follows: Carbonylated proteins were stained on frozen sections with the anti-carbonylated proteins probe (fluorescein-5-thiosemicarbazid-FTZ) (Lifetechnologies, Ref. F-121) diluted at 0.5 μM in MES-Na+ and incubated for 30 minutes in the dark and at room temperature. The staining was observed by epifluorescence and assessed by microscopical observations. Batches analyzed were T, TUV, P1UV, P2UV, P3UV at day 4 also referred to as TJ4, TUVJ4, P1UVJ4, P2UVJ4, P3UVJ4

[3] = system: living human skin explants; assay: Biochemical assay of MDA (lipid peroxidation) on living human skin explants exposed to pollutants
Experimental: Product A (Table 11) was diluted in water to obtain the following products at concentrations: product P1=A at 4%, product P2=A at 2% and product P3=A at 1%.
(§5) 59 human skin explants of an average diameter of 14 mm (±1 mm) were prepared on an abdoplasty coming from a person. The explants were kept in survival in BEM culture medium at 37° C. in a humid, 5%-CO2 atmosphere.
(§6) The tested products were topically applied on the basis of 2 μl per cm^2 and spread using a small spatula twice a day (morning and evening) on day 0, 1, 2, 3 and 4.
(§7) On D4, the explants of the batches ML and PML were placed on the 3D grid with 900 μl of HBSS and placed into the PolluBox® system.
(§8) 3 mL of the solution <<ML>> (supplemented with 150 μl/ml of NaCl 0.9%) were exposed by vaporization for 1 hour and half, as shown in the figure below.
The MDA assay was realized with an enhanced method of the TBARs (Thiobarbituric Acid Reactive Species) assay. The MDA was assayed in HBSS medium by addition of TBARs solution (thiobarbituric acid, hydrochloric acid and tricholoroacetic acid) and placed in a water bath (80° C. for 15 minutes). A lot of substances (like glucose) which are not related with lipoperoxidation, react with thiobarbituric acid (ThioBarbituric Acid Reagents=TBARS), so to enhance the specificity of the assay, the MDA was extracted by a liquid/liquid extraction with butanol. The MDA in butanol was measured in spectrofluorimetry (excitation: 515 nm, emission: 550 nm) using a Tecan Infinite M200 Pro microplate reader. Using this assay, MDA contained in the culture medium BEMc on […] was measured for the 4 explants per batch. The MDA concentration was expressed in pmol of MDA/ml of the medium. Concerned batches: all batches on day 5, 4 explants per batch.
The average of the blank batch TJ5 was calculated (154.0 nmol/L). Then, for each explant of MLJ5, this average value was subtracted from […]. That corresponds to calculating the delta (increase) of MDA induced by ML for each explant compared to the average of the batch without ML, it is ΔML.
These average deltas were then compared to the average delta of MDA induction without treatment (ΔML).

[4] = system: Aryl hydrocarbon receptor (AhR); assay: Immunostaining of AHR in human skin explants, image analysis
Experimental: as §5, §6, §7, §8
Aryl hydrocarbon receptor (AhR) is a transcriptional factor implicated in molecular response following the exposure of several compounds, including aromatic polycyclic hydrocarbon and ozone (Haarmann-Stemmann et al. 2012.JID 132:7-9; Afaq et al., 2009 JID 129:2396-2403). AhR is involved in activation of cytochrome family genes and CYP450 detoxification enzymes. In presence of pollution AhR is dissociated from the protein complex (HSP90), translocated to the nucleus, dimerized with ARNt, and binds to the DNA on target genes (Cytochrome family—activated in response to xenobiotics) (Ikuta et al., 2009. Biochemical pharmacology. 77:588-596). […] The immunostaining was performed using an automated slide processing system (Autostainer, Dako) and assessed by microscopical observation. Concerned batches: all the batches
The images analyses were performed on all the images (9 to 12 images) of each batch using the CellD storing software (Olympus Microscopy, Matrix Optics (M)SdnBhd, Taman Mayhang, Maylasia). For each batch of explants, the percentage of the region of interest covered by the staining (stained surface percentage) was determined by image analysis. […]
The ΔML for each treatment P was calculated using the same method to obtain the ΔPML, i.e. the variation of the Surf % induced by the pollutants exposure when treated with P. […]

[5] = system: human living skin explant; assay: TUNEL assay (UV-induced DNA damage) on human living skin explants; settings: UV irradiated
Experimental: as §1, §2, §3, §4
DNA oxidization is a type of damage that can be promoted by reactive oxygen species (ROS), generated by UV exposure. […] The staining was assessed by microscopical observation. Batches analyzed were T, TUV, P1UV, P2UV, P3UV at day 4 also referred to as TJ4, TUVJ4, P1UVJ4, P2UVJ4, P3UVJ4 (T=Control batch non treated non irradiated; TJ4=T at Day 4 (D4); TUV: control batch non treated UV irradiated; TUVJ4=[…] at Day 4; P1J4: product A 4% non irradiated at D4; P2J4: product A 2% non irradiated at D4; P3J4: product A 1% non irradiated at D4; P1UV: product A 4% UV irradiated; P1UVJ4: product A 4% UV irradiated at D4 P2UV: product A 2% UV irradiated; P2UVJ4: product A 2% UV irradiated at D4; P3UV: product A 1% UV irradiated; P3UVJ4: product A 1% UV irradiated at D4

[6] = after pollutants exposure, day 5

## O=C(O)[C@@H]1CCCN1 [Combination P6, L-Proline]
[1]
  Cell Viability, variation vs TJ4: ↔ (indicates no variation)
[2]
  effect on UV-induced carbonylated proteins: slightly inhibits the formation of carbonylated proteins
[3]; MDA induction by pollutants, day 5
  MDA, variation ΔPML vs ΔML: −62%*
[3]; after pollutant exposure (ΔPML vs ΔML)
  reduction of the increase of MDA: 62%
[3]; [6]
  MDA, variation PML vs ML: −18%*
[4]; [6]
  AHR, variation PML vs ML: −15%**
[4]; without pollutants, D5
  decrease of AhR expression compared to batch TJ5: 63%
[4]; without pollutants, day 5
  AHR, variation P vs T: −63%*
[5]
  activity against UV-induced DNA damage: totally inhibits the increase of DNA damage
